According to ChEMBL document CHEMBL1149596, “QSAR study of selective ligands for the thyroid hormone receptor beta” (Bioorg Med Chem, 2007):
Several values for one entry are separate records, joined by “and”; a condition that tells them apart may be missing. Equal values may be shown once.

Molecular target: T1, Thyroid hormone receptor beta (Homo sapiens, UniProt P10828)
T1 sequence (P10828 whole entry): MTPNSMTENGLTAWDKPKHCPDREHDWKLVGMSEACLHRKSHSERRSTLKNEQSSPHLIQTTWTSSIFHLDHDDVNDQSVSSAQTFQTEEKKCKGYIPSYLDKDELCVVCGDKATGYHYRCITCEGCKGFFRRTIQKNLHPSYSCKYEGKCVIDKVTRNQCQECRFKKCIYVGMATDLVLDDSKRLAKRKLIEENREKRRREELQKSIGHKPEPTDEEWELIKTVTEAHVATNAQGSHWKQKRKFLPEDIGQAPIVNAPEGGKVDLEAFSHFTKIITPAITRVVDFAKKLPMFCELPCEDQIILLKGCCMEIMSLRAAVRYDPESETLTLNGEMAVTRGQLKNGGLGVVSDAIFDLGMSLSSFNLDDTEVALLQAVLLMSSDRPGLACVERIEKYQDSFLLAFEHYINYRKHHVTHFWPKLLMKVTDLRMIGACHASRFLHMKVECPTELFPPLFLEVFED

Row | SMILES | IC50
1 | O=c1cnn(-c2cc(Cl)c(Oc3ccc(O)c(S(=O)(=O)NC4CCC4)c3)c(Cl)c2)c(=O)[nH]1 | 1.12 nM
2 | O=c1cnn(-c2cc(Cl)c(Oc3ccc(O)c(S(=O)(=O)N4CCCCC4)c3)c(Cl)c2)c(=O)[nH]1 | 0.0562 nM
3 | Cc1cc(-n2ncc(=O)[nH]c2=O)cc(Cl)c1Oc1ccc(O)c(S(=O)(=O)N2CCOCC2)c1 | 75.9 nM
4 | O=C(NC1CCC1)c1cc(Oc2c(Cl)cc(-n3ncc(=O)[nH]c3=O)cc2Cl)ccc1O | 1.78 nM
5 | O=C(c1cc(Oc2c(Cl)cc(-n3ncc(=O)[nH]c3=O)cc2Cl)ccc1O)N1CCOCC1 | 2 nM
6 | O=C(c1cc(Oc2c(Cl)cc(-n3ncc(=O)[nH]c3=O)cc2Cl)ccc1O)N1CCCCC1 | 1.74 nM and 5.25 nM
7 | O=c1cnn(-c2cc(Cl)c(Oc3ccc(O)c(S(=O)(=O)N4C5CCC4CC4(C5)OCCO4)c3)c(Cl)c2)c(=O)[nH]1 | 0.871 nM
8 | Cc1cc(-n2ncc(=O)[nH]c2=O)cc(Cl)c1Oc1ccc(O)c(S(=O)(=O)N2CCCCC2)c1 | 0.363 nM
9 | O=c1cnn(-c2cc(Cl)c(Oc3ccc(O)c(S(=O)(=O)N4C5CCC4CC4(CCCO4)C5)c3)c(Cl)c2)c(=O)[nH]1 (configuration not stated) | 0.776 nM
10 | O=c1cnn(-c2cc(Cl)c(Oc3ccc(O)c(S(=O)(=O)Nc4ccccc4)c3)c(Cl)c2)c(=O)[nH]1 | 0.282 nM
11 | O=C(O)Cc1cc(Br)c(Oc2ccc(O)c(C(=O)NCC(c3ccccc3)c3ccccc3)c2)c(Br)c1 | 37.2 nM
12 | O=c1cnn(-c2cc(Cl)c(Oc3ccc(O)c(S(=O)(=O)N4CCc5ccccc54)c3)c(Cl)c2)c(=O)[nH]1 | 0.646 nM
13 | CC1(C)C2CCC1(C)[C@H](NC(=O)c1cc(Oc3c(Cl)cc(-n4ncc(=O)[nH]c4=O)cc3Cl)ccc1O)C2 (some centres not stated) | 1.02 nM
14 | COc1ccc(CCNC(=O)c2cc(Oc3c(Br)cc(CC(=O)O)cc3Br)ccc2O)cc1 | 4.79 nM
15 | COc1cccc(CCNC(=O)c2cc(Oc3c(Br)cc(CC(=O)O)cc3Br)ccc2O)c1 | 8.51 nM
16 | Cc1cc(-n2ncc(=O)[nH]c2=O)cc(C)c1Oc1ccc(O)c(S(=O)(=O)N2CCCCC2)c1 | 1.29 nM
17 | O=c1cnn(-c2cc(Cl)c(Oc3ccc(O)c(S(=O)(=O)NC4CCCCC4)c3)c(Cl)c2)c(=O)[nH]1 | 1.29 nM
18 | O=C(O)Cc1cc(Br)c(Oc2ccc(O)c(C(=O)NC(=O)c3ccccc3)c2)c(Br)c1 | 4.17 nM
19 | COc1ccccc1CCNC(=O)c1cc(Oc2c(Br)cc(CC(=O)O)cc2Br)ccc1O | 0.468 nM
20 | O=C(NC1CCCCC1)c1cc(Oc2c(Cl)cc(-n3ncc(=O)[nH]c3=O)cc2Cl)ccc1O | 0.195 nM
21 | CC1(C)C2CCC(NC(=O)c3cc(Oc4c(Cl)cc(-n5ncc(=O)[nH]c5=O)cc4Cl)ccc3O)C1C2 (stereo in doubt; 42) | 0.166 nM
22 | CC1(C)C2CCC(NC(=O)c3cc(Oc4c(Cl)cc(-n5ncc(=O)[nH]c5=O)cc4Cl)ccc3O)C1C2 (stereo in doubt; 43) | 0.112 nM
